Experimental data from patent US20160022621A1, “COMPOSITION FOR ORAL ADMINISTRATION FOR BINDING ALDEHYDES IN THE GASTROINTESTINAL TRACT” (BIOHIT OYJ, priority 2013, published 2016).

Legend:
[1] = L-cysteine concentration in gastric juice (HPLC) after oral tablets; type: in vivo, human; details: after oral administration of study formulations containing L-cysteine (total 200 mg)
Method: (§1) An analysis was carried out after administering L-cysteine (in a total of 200 mg) or placebo, orally to subjects. This cysteine or placebo was formulated into film-coated tablets as described above, with the cysteine or the placebo in granules together with a polymer not dissolving in the stomach and an inert bulking agent. The subjects swallowed said tablets with 200 ml of water. Immediately thereafter they were given ethanol (0.3 g/kg body weight) diluted in water to 15 vol %.
Gastric juice samples were collected, and their L-cysteine concentrations were determined using HPLC, and two parallel samples.
The mean cysteine concentrations are represented in FIG. 2. After administration of placebo formulations, no L-cysteine was detected. No significant correlation was found between the cysteine concentration and the acetaldehyde concentration.

[2] = Acetaldehyde-binding: acetaldehyde and ethanol levels in gastric juice after oral L-cysteine tablets and ethanol; type: in vivo, human; details: L-cysteine total 200 mg oral, film-coated tablets; ethanol 0.3 g/kg, 15 vol %; all measurements
Method: as §1, with “%. Gastric juice samples were collected, and their L-cysteine concentrations were determined using HPLC, and two parallel samples. […] In all measurements, the average acetaldehyde concentration of the gastric juice was 2.6 times higher with placebo than with cysteine. […] The average ethanol concentration in the gastric juice was 5.0 vol-% in the first sample, declining to 0.9 vol-% in the 40-minute sample. A positive correlation emerged between the acetaldehyde concentration and the ethanol concentration.” for “%.”

Structure (SMILES): N[C@@H](CS)C(=O)O [L-cysteine]
- L-cysteine detected in gastric juice [1]: detected in the gastric juice of all subjects
- average acetaldehyde concentration of the gastric juice, times higher with placebo than with cysteine [2]: 2.6 times
